In publication PMC4703110 (Journal of chemical information and modeling, 2015):

Molecular target: human μ-opioid receptor (Homo sapiens, UniProt P35372)
Assay type: cell-based
Details: read-out: EC50, μM (PAM mode)

Sequence of human μ-opioid receptor (P35372 whole entry): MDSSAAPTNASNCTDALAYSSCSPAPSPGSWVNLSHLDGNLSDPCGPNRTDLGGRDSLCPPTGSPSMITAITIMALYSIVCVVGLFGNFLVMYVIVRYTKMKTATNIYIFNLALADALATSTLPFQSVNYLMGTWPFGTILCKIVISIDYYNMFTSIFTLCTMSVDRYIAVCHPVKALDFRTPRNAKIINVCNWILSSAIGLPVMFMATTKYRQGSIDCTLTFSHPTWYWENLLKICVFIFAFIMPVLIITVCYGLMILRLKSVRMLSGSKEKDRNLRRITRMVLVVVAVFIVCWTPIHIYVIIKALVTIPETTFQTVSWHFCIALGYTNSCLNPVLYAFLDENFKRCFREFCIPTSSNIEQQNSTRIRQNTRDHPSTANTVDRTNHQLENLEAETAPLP

COc1ccc(C2SCCN2S(=O)(=O)c2ccc(Cl)cc2)cc1Br (stereo not shown) [BMS-986122]
EC50: 16.2 µM
